Data taken from PubChem BioAssay (NCI).
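Step 1: Grow cells in 96-well plates. Step 2: Expose to compound for 48 hours at 5 concentrations. Step 3: Interpolate endpoints linearly; if unreached, use highest concentration. TGI: total growth inhibition.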

What was measured:
Experiment in all cases: NCI-60 cell line screen, 48 h
786-0 renal = system: 786-0 renal
A498 renal = system: A498 renal
A549 NSCLC = system: A549 NSCLC
ACHN renal = system: ACHN renal
CAKI-1 renal = system: CAKI-1 renal
CCRF-CEM leukemia = system: CCRF-CEM leukemia
COLO 205 colon = system: COLO 205 colon
DLD-1 colon = system: DLD-1 colon
DMS 114 small cell lung = system: DMS 114 small cell lung
DMS 273 small cell lung = system: DMS 273 small cell lung
EKVX NSCLC = system: EKVX NSCLC
HCC-2998 colon = system: HCC-2998 colon
HCT-116 colon = system: HCT-116 colon
HCT-15 colon = system: HCT-15 colon
HL-60(TB) leukemia = system: HL-60(TB) leukemia
HOP-62 NSCLC = system: HOP-62 NSCLC
HT29 colon = system: HT29 colon
IGROV1 ovarian = system: IGROV1 ovarian
K-562 leukemia = system: K-562 leukemia
KM12 colon = system: KM12 colon
KM20L2 colon = system: KM20L2 colon
LOX IMVI melanoma = system: LOX IMVI melanoma
LXFL 529 NSCLC = system: LXFL 529 NSCLC
M14 melanoma = system: M14 melanoma
M19-MEL melanoma = system: M19-MEL melanoma
MALME-3M melanoma = system: MALME-3M melanoma
MOLT-4 leukemia = system: MOLT-4 leukemia
NCI-H226 lung = system: NCI-H226 lung
NCI-H23 lung = system: NCI-H23 lung
NCI-H460 lung = system: NCI-H460 lung
NCI-H522 lung = system: NCI-H522 lung
OVCAR-3 ovarian = system: OVCAR-3 ovarian
OVCAR-5 ovarian = system: OVCAR-5 ovarian
OVCAR-8 ovarian = system: OVCAR-8 ovarian
RPMI-8226 leukemia = system: RPMI-8226 leukemia
RXF 393 renal = system: RXF 393 renal
SF-268 CNS = system: SF-268 CNS
SF-295 CNS = system: SF-295 CNS
SF-539 CNS = system: SF-539 CNS
SK-MEL-2 melanoma = system: SK-MEL-2 melanoma
SK-MEL-28 melanoma = system: SK-MEL-28 melanoma
SK-MEL-5 melanoma = system: SK-MEL-5 melanoma
SK-OV-3 ovarian = system: SK-OV-3 ovarian
SN12C renal = system: SN12C renal
SNB-19 CNS = system: SNB-19 CNS
SNB-75 CNS = system: SNB-75 CNS
SNB-78 CNS = system: SNB-78 CNS
SW-620 colon = system: SW-620 colon
TK-10 renal = system: TK-10 renal
U251 CNS = system: U251 CNS
UACC-257 melanoma = system: UACC-257 melanoma
UACC-62 melanoma = system: UACC-62 melanoma
UO-31 renal = system: UO-31 renal
XF 498 CNS = system: XF 498 CNS
HOP-18 NSCLC = system: HOP-18 NSCLC
HOP-92 NSCLC = system: HOP-92 NSCLC
OVCAR-4 ovarian = system: OVCAR-4 ovarian
SR leukemia = system: SR leukemia

COC(=O)[C@@H]1c2[nH]c3ccccc3c2C[C@@H]2c3ccccc3NC(=O)[C@@H]21
TGI (786-0 renal): > 100 µM
TGI (A498 renal): > 100 µM
TGI (A549 NSCLC): > 100 µM
TGI (ACHN renal): > 100 µM
TGI (CAKI-1 renal): > 100 µM
TGI (CCRF-CEM leukemia): > 100 µM
TGI (COLO 205 colon): > 100 µM
TGI (DLD-1 colon): > 100 µM
TGI (DMS 114 small cell lung): > 100 µM
TGI (DMS 273 small cell lung): > 100 µM
TGI (EKVX NSCLC): > 100 µM
TGI (HCC-2998 colon): > 100 µM
TGI (HCT-116 colon): > 100 µM
TGI (HCT-15 colon): > 100 µM
TGI (HL-60(TB) leukemia): > 100 µM
TGI (HOP-62 NSCLC): 54.3 µM
TGI (HT29 colon): > 100 µM
TGI (IGROV1 ovarian): > 100 µM
TGI (K-562 leukemia): > 100 µM
TGI (KM12 colon): > 100 µM
TGI (KM20L2 colon): > 100 µM
TGI (LOX IMVI melanoma): > 100 µM
TGI (LXFL 529 NSCLC): > 100 µM
TGI (M14 melanoma): > 100 µM
TGI (M19-MEL melanoma): > 100 µM
TGI (MALME-3M melanoma): > 100 µM
TGI (MOLT-4 leukemia): > 100 µM
TGI (NCI-H226 lung): > 60.8 µM
TGI (NCI-H23 lung): > 100 µM
TGI (NCI-H460 lung): > 100 µM
TGI (NCI-H522 lung): > 100 µM
TGI (OVCAR-3 ovarian): > 100 µM
TGI (OVCAR-5 ovarian): > 100 µM
TGI (OVCAR-8 ovarian): > 100 µM
TGI (RPMI-8226 leukemia): > 100 µM
TGI (RXF 393 renal): > 100 µM
TGI (SF-268 CNS): > 31.6 µM
TGI (SF-295 CNS): > 31.6 µM
TGI (SF-539 CNS): > 100 µM
TGI (SK-MEL-2 melanoma): > 100 µM
TGI (SK-MEL-28 melanoma): > 100 µM
TGI (SK-MEL-5 melanoma): > 100 µM
TGI (SK-OV-3 ovarian): > 100 µM
TGI (SN12C renal): > 100 µM
TGI (SNB-19 CNS): > 100 µM
TGI (SNB-75 CNS): 60.6 µM
TGI (SNB-78 CNS): > 100 µM
TGI (SW-620 colon): > 100 µM
TGI (TK-10 renal): > 100 µM
TGI (U251 CNS): > 100 µM
TGI (UACC-257 melanoma): > 100 µM
TGI (UACC-62 melanoma): > 100 µM
TGI (UO-31 renal): > 100 µM
TGI (XF 498 CNS): > 100 µM

CN(C)N=Nc1cn[nH]c1C(N)=O
TGI (786-0 renal): > 100 µM
TGI (A498 renal): > 100 µM
TGI (A549 NSCLC): > 100 µM
TGI (ACHN renal): > 100 µM
TGI (CAKI-1 renal): > 100 µM
TGI (CCRF-CEM leukemia): > 100 µM
TGI (COLO 205 colon): > 100 µM
TGI (DLD-1 colon): > 100 µM
TGI (DMS 114 small cell lung): > 100 µM
TGI (DMS 273 small cell lung): > 100 µM
TGI (EKVX NSCLC): > 100 µM
TGI (HCC-2998 colon): > 100 µM
TGI (HCT-116 colon): > 100 µM
TGI (HCT-15 colon): > 100 µM
TGI (HL-60(TB) leukemia): > 100 µM
TGI (HOP-18 NSCLC): > 100 µM
TGI (HOP-62 NSCLC): > 100 µM
TGI (HOP-92 NSCLC): > 100 µM
TGI (HT29 colon): > 100 µM
TGI (IGROV1 ovarian): > 100 µM
TGI (K-562 leukemia): > 100 µM
TGI (KM12 colon): > 100 µM
TGI (KM20L2 colon): > 100 µM
TGI (LOX IMVI melanoma): > 100 µM
TGI (LXFL 529 NSCLC): > 100 µM
TGI (M14 melanoma): > 100 µM
TGI (M19-MEL melanoma): > 100 µM
TGI (MALME-3M melanoma): > 100 µM
TGI (MOLT-4 leukemia): > 100 µM
TGI (NCI-H226 lung): > 100 µM
TGI (NCI-H23 lung): > 100 µM
TGI (NCI-H460 lung): > 100 µM
TGI (NCI-H522 lung): > 100 µM
TGI (OVCAR-3 ovarian): > 100 µM
TGI (OVCAR-4 ovarian): > 100 µM
TGI (OVCAR-5 ovarian): > 100 µM
TGI (OVCAR-8 ovarian): > 100 µM
TGI (RPMI-8226 leukemia): > 100 µM
TGI (SF-268 CNS): > 100 µM
TGI (SF-295 CNS): > 100 µM
TGI (SF-539 CNS): > 100 µM
TGI (SK-MEL-2 melanoma): > 100 µM
TGI (SK-MEL-28 melanoma): > 100 µM
TGI (SK-MEL-5 melanoma): > 100 µM
TGI (SK-OV-3 ovarian): > 100 µM
TGI (SN12C renal): > 100 µM
TGI (SNB-19 CNS): > 100 µM
TGI (SNB-75 CNS): > 100 µM
TGI (SR leukemia): > 100 µM
TGI (SW-620 colon): > 100 µM
TGI (TK-10 renal): > 100 µM
TGI (U251 CNS): > 100 µM
TGI (UACC-257 melanoma): > 100 µM
TGI (UACC-62 melanoma): 93.3 µM
TGI (XF 498 CNS): > 100 µM
